Read-outs that look alike come from different tables or passages of the source.
How the values were obtained:
tail flick in rats = assay type: in vivo, rat
Procedure: The effects of invention compounds on latency in the time between stimulus application and tail flick in rats were evaluated using the procedure of D'Amour and Smith, J. Pharmacol. Exp. Ther. 72:74-79 (1941). Male rats (150-200g; Harlan, San Diego, Calif.) were acclimated to investigator's handling by taking two-to-three tail-flick latencies. The animals were held by hand such that the tail is placed in the groove of the Tail-Flick meter (IITC Life Sciences, Woodland Hill, Calif., Model 33). The light was focused 3-4 cm from the tip of the tail by a foot-operated switch. The intensity of the incident beam was adjusted to give baseline latencies in the range of 1-4 seconds. Groups of 5-6 rates were used in each treatment. The tail-flick latencies were recorded to the nearest 0.1 seconds and a cut-off time of 10 seconds was established to prevent thermal injury. The results of one such study are shown in Table V. Results presented in the Table are expressed as the percent of the maximum latency to remove the tail from the light beam. Maximum latency is 10 seconds.

[1] = system: rats with unilateral 6-hydroxydopamine lesions of the nigro-striatal dopamine pathway; assay type: in vivo, rat
Procedure: The effects of invention compounds on turning behavior of rats with unilateral 6-hydroxydopamine lesions in the striatum were evaluated using the procedure of Ungerstedt and Arbutknott Brain Res. 24:485-493 (1970). Rats were injected with desmethylimipramine (25 mg/kg i.p.) and pargyline (75 mg/kg i.p.) approximately 30 minutes prior to 6-hydroxydopamine infusion into the substantia nigra. Results reported in the Table are measured as the maximal rotation per 15-min interval toward the lesioned side of the striatum.

rat hippocampus slices = assay type: cell-based
Procedure: (§1) Measurement of ^3 H-dopamine release from rat striatal slices was performed according to the method of Sacaan et al. (J. Neurochem. 59:245 (1992)). Male Sprague-Dawley rats (250-300 g) were decapitated and the striata dissected quickly on a cold glass surface. The tissue was chopped to a thickness of 300 μm with a McIlwain tissue chopper. After chopping again at right angles the tissue was dispersed and incubated for 10 min. at 37° C. in oxygenated Kreb's buffer. ^3 H-Dopamine (40 Ci/mmol, NEN-Dupont, Boston, Mass.) was added (50 nM) and the tissue was incubated for 30 min. in Kreb's buffer containing 10 μM pargyline and 0.5 mM ascorbic acid. Aliquots of the minced tissue were then transferred to chambers of a Brandel Superfusion system in which the tissue was supported on Whatman GF/B filter discs. The tissue was then superfused with buffer at a constant flow rate of 0.3 ml/min. by means of a Brandel peristaltic pump. The perfusate was collected in plastic scintillation vials in 3-min. fractions, and the radioactivity was estimated by scintillation spectrophotometry. The superfusate for the first 120 min. was discarded. After two baseline fractions had been collected, the superfusion buffer was switched to fresh buffer with or without compound of interest. At the end of the experiment the filter and the tissue were removed, and the ^3 H-dopamine content was estimated after extraction into scintillation fluid. The fractional efflux of tritium was estimated as the amount of radioactivity in the perfusate fraction relative to the total amount in the tissue.
(§2) Following essentially the same procedure as set forth in the preceding paragraph, the amount of ^3 H-norepinephrine released from rat hippocampus and thalamus slices superfused with buffer containing (or lacking) compounds of interest was also measured.
(§3) The results of studies of the effects of an invention compound (as compared to the effect of nicotine and cytisine) on the release of neurotransmitters from rat brain slices are presented in Table II. The results presented in the Table are expressed as the percent fractional release.

rat thalamus slices = assay type: cell-based
Procedure: as §1, §2, §3

rat striatal slices = assay type: cell-based
Procedure: as §1, §3

[2] = system: haloperidol-induced catalepsy in rats; assay: Haloperidol-induced catalepsy model in rats; assay type: in vivo, rat; details: s.c.; for Reduction in catalepsy (maximum): haloperidol 2 mg/kg i.p., vs haloperidol alone
[3] = biological target: T1, acetylcholine receptor (rat cerebral membranes) (Rattus norvegicus, UniProt P09483+P12390); assay: 3H-MCC (methylcarbamylcholine) displacement from rat cerebral membranes; assay type: binding; details: 3H-MCC displacement
T1 construct: Synaptic membranes were prepared by homogenizing the cortical tissue; from tissue; host or cells: cerebral cortex synaptic membranes of male Sprague-Dawley rats
T1 sequence (P09483 31-630): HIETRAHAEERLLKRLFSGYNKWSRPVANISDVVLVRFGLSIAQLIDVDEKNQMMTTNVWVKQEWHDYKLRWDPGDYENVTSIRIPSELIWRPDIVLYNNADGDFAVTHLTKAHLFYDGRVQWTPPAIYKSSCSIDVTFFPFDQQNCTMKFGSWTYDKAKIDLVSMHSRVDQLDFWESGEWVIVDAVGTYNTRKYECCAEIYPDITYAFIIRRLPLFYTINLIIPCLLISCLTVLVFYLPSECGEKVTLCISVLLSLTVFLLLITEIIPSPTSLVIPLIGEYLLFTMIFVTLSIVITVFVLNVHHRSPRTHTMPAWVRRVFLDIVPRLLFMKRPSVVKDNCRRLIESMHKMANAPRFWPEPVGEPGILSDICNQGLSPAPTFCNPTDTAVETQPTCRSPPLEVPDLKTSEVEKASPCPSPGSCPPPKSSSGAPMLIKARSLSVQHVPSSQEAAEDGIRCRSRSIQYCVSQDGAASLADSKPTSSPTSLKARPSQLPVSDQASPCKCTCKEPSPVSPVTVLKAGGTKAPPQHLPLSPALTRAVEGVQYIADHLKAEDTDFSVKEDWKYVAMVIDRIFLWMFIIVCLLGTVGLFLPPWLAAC
T1 sequence (P12390 25-500): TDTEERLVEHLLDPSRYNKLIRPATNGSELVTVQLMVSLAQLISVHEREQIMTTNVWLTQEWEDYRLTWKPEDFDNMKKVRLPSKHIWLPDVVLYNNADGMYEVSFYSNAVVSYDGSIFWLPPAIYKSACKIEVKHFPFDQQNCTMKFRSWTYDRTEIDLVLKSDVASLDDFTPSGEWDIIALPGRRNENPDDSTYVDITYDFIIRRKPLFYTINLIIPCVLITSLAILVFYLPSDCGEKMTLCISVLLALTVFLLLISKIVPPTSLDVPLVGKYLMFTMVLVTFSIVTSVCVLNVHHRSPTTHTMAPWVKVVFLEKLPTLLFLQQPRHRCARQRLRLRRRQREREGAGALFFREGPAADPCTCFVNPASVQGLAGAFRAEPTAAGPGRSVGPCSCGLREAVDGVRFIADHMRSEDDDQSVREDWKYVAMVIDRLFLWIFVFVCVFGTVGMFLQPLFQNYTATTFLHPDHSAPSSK

[4] = biological target: T1, acetylcholine receptor (rat cerebral membranes); assay: 3H-nicotine displacement from rat cerebral membranes; assay type: binding; details: 3H-nicotine (1.9 nM) displacement, atropine 3 μM
[5] = biological target: acetylcholine receptor (rat cerebral membranes); assay type: binding; details: 3H-QNB displacement
[6] = biological target: T1, acetylcholine receptor (rat cerebral membranes); assay: 3H-cyt (cytisine) displacement from rat cerebral membranes; assay type: binding; details: 3H-cyt displacement

CN1CC[C@]23c4c5ccc(O)c4O[C@H]2[C@@H](O)C=C[C@H]3[C@H]1C5 [Morphine, reference compound]
% maximum possible effect (tail flick in rats; 2 mg/kg, s.c., maximum latency 10 seconds): 100%

CC(N)Cc1ccccc1 (centres unmarked) [AMPHETAMINE, reference compound]
Range of activity (maximal rotation per 15-min interval toward the lesioned side of the striatum) ([1]; 5 mg/kg, s.c.): 50-200 rotation per 15-min interval

O=c1cccc2n1C[C@@H]1CNC[C@H]2C1 [CYTISINE, cytisine]
3H-norepinephrine hippocampus, percent fractional release (rat hippocampus slices; 100 μM): 4.3%
3H-norepinephrine thalamus, percent fractional release (rat thalamus slices; 100 μM): 2.9%
3H-dopamine striatum, percent fractional release (rat striatal slices; 100 μM): 0.96%

COc1cc2c(cn1)C1NCCC1CC2 (centres unmarked)
Cataleptogenic effect of haloperidol in rats (in words) ([2]; 3 mg/kg): reduces the cataleptogenic effect of haloperidol in rats
Reduction in catalepsy (maximum) ([2]; 3 mg/kg): 34%
3H-norepinephrine hippocampus, percent fractional release (rat hippocampus slices; 300 μM): 0.69%
3H-norepinephrine thalamus, percent fractional release (rat thalamus slices; 300 μM): 2.2%
IC50 [3]: 0.8 µM
Range of activity (maximal rotation per 15-min interval toward the lesioned side of the striatum) ([1]; 10 mg/kg, s.c.): 9-50 rotation per 15-min interval
Turning towards the 6-hydroxydopamine-lesioned side (in words) ([1]; 10 mg/kg, s.c.): induces turning towards the 6-hydroxydopamine-lesioned side of the rat striatum
IC50 [4]: 1.9 µM
IC50 [5]: 6 µM
Duration of effect (tail flick in rats; 30 mg/kg, p.o.): > 180 min
Latency between application of stimulus and tail-flick response (in words) (tail flick in rats; 30 mg/kg, p.o., as compared to nicotine): increased the latency period, as compared to nicotine
% maximum possible effect (tail flick in rats; 30 mg/kg, p.o., maximum latency 10 seconds): 52%
Duration of effect versus morphine (in words) (tail flick in rats; rat, in vivo): longer duration than the effect of morphine
IC50 [6]: 5.4 µM
3H-dopamine striatum, percent fractional release (rat striatal slices; 300 μM): 2.2%
Release of catecholamines from rat brain slices (in words) (rat striatal slices; striatum (dopamine), hippocampus and thalamus (norepinephrine)): selectively induces release of catecholamines in different brain regions

c1cc2c(cn1)C1NCCC1CO2 (centres unmarked)
IC50 [3]: 0.61 µM
IC50 [4]: 0.51 µM
IC50 [6]: 2 µM

CN1CCCC1c1cccnc1 (centres unmarked) [NICOTINE, nicotine, reference compound]
Reduction in catalepsy (maximum) ([2]; 2 mg/kg): 21%
3H-norepinephrine hippocampus, percent fractional release (rat hippocampus slices): 4.1
3H-norepinephrine thalamus, percent fractional release (rat thalamus slices): 2.9
Range of activity (maximal rotation per 15-min interval toward the lesioned side of the striatum) ([1]; rat, in vivo): 6-50
% maximum possible effect (tail flick in rats; rat, in vivo): 38%
Duration of effect (tail flick in rats; rat, in vivo): 60 min
3H-dopamine striatum, percent fractional release (rat striatal slices): 1.80

COc1cc2c(cn1)C1C(CC2)CCN1C (centres unmarked)
IC50 [3]: 5.5 µM
IC50 [4]: 10.7 µM
IC50 [5]: 9 µM
IC50 [6]: 27.5 µM
